# Assay results: patent US10052331B2, “3-(3H-imidazo[4,5-C]pyridin-2-yl)-1H-pyrazolo[3,4-C]pyridine and therapeutic uses thereof” (Samumed, LLC, priority 2014, dated 2018)
# Tested on: Wnt activity (Wnt-responsive Sp5 promoter-luciferase reporter in SW480 cells)
# Test: Wnt activity screening assay: Sp5-Luc reporter gene in SW480 colon carcinoma cells
# Format: cell-based
# Conditions: Homo sapiens
# Excerpt: The screening assay for Wnt activity is described as follows. Reporter cell lines can be generated by stably transducing cancer cell lines (e.g., colon cancer) or primary cells (e.g., IEC-6 intestinal cells) with a lentiviral construct that includes a Wnt-responsive promoter driving expression of the firefly luciferase gene.
# SW480 colon carcinoma cells were transduced with a lentiviral vector expressing luciferase with a human Sp5 promoter consisting of a sequence of eight TCF/LEF binding sites. SW480 cells stably expressing the Sp5-Luc reporter gene and a hygromycin resistance gene were selected by treatment with 150 μg/ml of hygromycin for 7 days. These stably transduced SW480 cells were expanded in cell culture and used for all further screening activities. For Sp5-Luc reporter gene assays, the cells were plated at 10,000 cells/well in 96-well plates with growth medium containing 10% fetal calf serum and incubated overnight at 37° C. and 5% CO2. Each compound was dissolved in DMSO as a 10 mM stock in standard j-vials and used to prepare compound source plates in dose-response format with 3-fold serial dilutions and a 10 mM top concentration. Compound transfer from serially diluted source plates to assay plates containing the cells was accomplished using a pintool (Multimek 96, Beckman equipped with V&P Scientific FP1S50H pins) based liquid handling protocol. This protocol used a slotted pin to transfer 50 nl of compound from a source plate well to an assay plate well containing 50 μl of cells in growth medium. […] Control wells received 50 nl of DMSO treatment for normalization and calculating IC50 values. The treated cells were incubated at 37° C. and 5% CO2 for an additional forty-two hours. Following incubation, the growth medium was removed and 50 μl of BrightGlo luminescence reagent (Promega) was added to each well of the 96-well assay plates. The plates were placed on an orbital shaker for 5 min and then luminescence was quantified on the Victor3 (Perkin Elmer) plate reader. Readings were normalized to DMSO only treated cells, and normalized activities were utilized for IC50 calculations using the dose-response log (inhibitor) vs. response-variable slope (four parameters) nonlinear regression feature available in GraphPad Prism 5.0 or 6.0.
row,IC50,SMILES
1,50 nM,"Fc1cccc(-c2cncc3[nH]c(-c4n[nH]c5cnc(-c6cnccn6)cc45)nc23)c1 [Compound 902, 3-(7-(3-Fluorophenyl)-3H-imidazo[4,5-c]pyridin-2-yl)-5-(pyrazin-2-yl)-1H-pyrazolo[3,4-c]pyridine]"
2,> 10000 nM,"CC(C)CC(=O)Nc1cncc(-c2cc3c(-c4nc5c(-c6cc(F)cc(OCCN(C)C)c6)cncc5[nH]4)n[nH]c3cn2)c1 [Compound 1192, N-(5-(3-(7-(3-(2-(Dimethylamino)ethoxy)-5-fluorophenyl)-3H-imidazo[4,5-c]pyridin-2-yl)-1H-pyrazolo[3,4-c]pyridin-5-yl)pyridin-3-yl)-3-methylbutanamide]"
3,115 nM,"CCCCC(=O)Nc1cncc(-c2cc3c(-c4nc5c(-c6ccoc6)cncc5[nH]4)n[nH]c3cn2)c1 [Compound 278, N-(5-(3-(7-(Furan-3-yl)-3H-imidazo[4,5-c]pyridin-2-yl)-1H-pyrazolo[3,4-c]pyridin-5-yl)pyridin-3-yl)pentanamide]"
4,174 nM,"CC(C)(C)C(=O)Nc1cncc(-c2cc3c(-c4nc5c(-c6ccc(F)cc6)cncc5[nH]4)n[nH]c3cn2)c1 [Compound 34, N-(5-(3-(7-(4-Fluorophenyl)-3H-imidazo[4,5-c]pyridin-2-yl)-1H-pyrazolo[3,4-c]pyridin-5-yl)pyridin-3-yl)pivalamide]"
5,167 nM,"CC(C)(C)CC(=O)Nc1cncc(-c2cc3c(-c4nc5c(-c6ccccc6F)cncc5[nH]4)n[nH]c3cn2)c1 [Compound 68, N-(5-(3-(7-(2-Fluorophenyl)-3H-imidazo[4,5-c]pyridin-2-yl)-1H-pyrazolo[3,4-c]pyridin-5-yl)pyridin-3-yl)-3,3-dimethylbutanamide]"
6,520 nM,"Fc1cccc(-c2cncc3[nH]c(-c4n[nH]c5cnc(-c6cncc(OCc7ccccc7)c6)cc45)nc23)c1 [Compound 898, 5-(5-(Benzyloxy)pyridin-3-yl)-3-(7-(3-fluorophenyl)-3H-imidazo[4,5-c]pyridin-2-yl)-1H-pyrazolo[3,4-c]pyridine]"
7,> 10000 nM,"CC(C)C(=O)Nc1cncc(-c2cc3c(-c4nc5c(-c6cccnc6)cncc5[nH]4)n[nH]c3cn2)c1 [Compound 87, N-(5-(3-(7-(Pyridin-3-yl)-3H-imidazo[4,5-c]pyridin-2-yl)-1H-pyrazolo[3,4-c]pyridin-5-yl)pyridin-3-yl)isobutyramide]"
8,> 10000 nM,"CC(C)CC(=O)Nc1cncc(-c2cc3c(-c4nc5c(-c6cc(F)cc(OCCN7CCCC7)c6)cncc5[nH]4)n[nH]c3cn2)c1 [Compound 1236, N-(5-(3-(7-(3-Fluoro-5-(2-(pyrrolidin-1-yl)ethoxy)phenyl)-3H-imidazo[4,5-c]pyridin-2-yl)-1H-pyrazolo[3,4-c]pyridin-5-yl)pyridin-3-yl)-3-methylbutanamide]"
9,93.5 nM,"CC(C)Nc1cncc(-c2cc3c(-c4nc5c(-c6cccnc6)cncc5[nH]4)n[nH]c3cn2)c1 [Compound 90, N-Isopropyl-5-(3-(7-(pyridin-3-yl)-3H-imidazo[4,5-c]pyridin-2-yl)-1H-pyrazolo[3,4-c]pyridin-5-yl)pyridin-3-amine]"
10,17 nM,"CCCC(=O)Nc1cncc(-c2cc3c(-c4nc5c(-c6cccc(F)c6)cncc5[nH]4)n[nH]c3cn2)c1 [Compound 17, N-(5-(3-(7-(3-Fluorophenyl)-3H-imidazo[4,5-c]pyridin-2-yl)-1H-pyrazolo[3,4-c]pyridin-5-yl)pyridin-3-yl)butyramide]"
11,79 nM,"CC(C)CC(=O)Nc1cncc(-c2cc3c(-c4nc5c(-c6cccs6)cncc5[nH]4)n[nH]c3cn2)c1 [Compound 288, 3-Methyl-N-(5-(3-(7-(thiophen-2-yl)-3H-imidazo[4,5-c]pyridin-2-yl)-1H-pyrazolo[3,4-c]pyridin-5-yl)pyridin-3-yl)butanamide]"
12,170 nM,"CC(C)CC(=O)Nc1cncc(-c2cc3c(-c4nc5c(-c6ccc(F)cc6)cncc5[nH]4)n[nH]c3cn2)c1 [Compound 28, N-(5-(3-(7-(4-Fluorophenyl)-3H-imidazo[4,5-c]pyridin-2-yl)-1H-pyrazolo[3,4-c]pyridin-5-yl)pyridin-3-yl)-3-methylbutanamide]"
13,123 nM,"CC(C)C(=O)Nc1cncc(-c2cc3c(-c4nc5c(-c6ccccc6F)cncc5[nH]4)n[nH]c3cn2)c1 [Compound 61, N-(5-(3-(7-(2-Fluorophenyl)-3H-imidazo[4,5-c]pyridin-2-yl)-1H-pyrazolo[3,4-c]pyridin-5-yl)pyridin-3-yl)isobutyramide]"
14,6 nM,"Fc1cccc(-c2cncc3[nH]c(-c4n[nH]c5cnc(-c6cn[nH]c6)cc45)nc23)c1 [Compound 887, 3-(7-(3-Fluorophenyl)-3H-imidazo[4,5-c]pyridin-2-yl)-5-(1H-pyrazol-4-yl)-1H-pyrazolo[3,4-c]pyridine]"
15,120 nM,"CC(C)CC(=O)Nc1cncc(-c2cc3c(-c4nc5c(-c6cccc(F)c6)cncc5[nH]4)n[nH]c3cn2)c1 [Compound 2, N-(5-(3-(7-(3-Fluorophenyl)-3H-imidazo[4,5-c]pyridin-2-yl)-1H-pyrazolo[3,4-c]pyridin-5-yl)pyridin-3-yl)-3-methylbutanamide]"
16,127 nM,"CCCCC(=O)Nc1cncc(-c2cc3c(-c4nc5c(-c6ccccc6F)cncc5[nH]4)n[nH]c3cn2)c1 [Compound 70, N-(5-(3-(7-(2-Fluorophenyl)-3H-imidazo[4,5-c]pyridin-2-yl)-1H-pyrazolo[3,4-c]pyridin-5-yl)pyridin-3-yl)pentanamide]"
17,> 10000 nM,"Fc1cccc(-c2cncc3[nH]c(-c4n[nH]c5cnc(-c6cncc(OC7CCNCC7)c6)cc45)nc23)c1 [Compound 892, 3-(7-(3-Fluorophenyl)-3H-imidazo[4,5-c]pyridin-2-yl)-5-(5-(piperidin-4-yloxy)pyridin-3-yl)-1H-pyrazolo[3,4-c]pyridine]"
18,> 10000 nM,"Fc1cccc(-c2cncc3[nH]c(-c4n[nH]c5cnc(-c6cncc(OCCN7CCCC7)c6)cc45)nc23)c1 [Compound 894, 3-(7-(3-Fluorophenyl)-3H-imidazo[4,5-c]pyridin-2-yl)-5-(5-(2-(pyrrolidin-1-yl)ethoxy)pyridin-3-yl)-1H-pyrazolo[3,4-c]pyridine]"
19,21.6 nM,"O=C(Nc1cncc(-c2cc3c(-c4nc5c(-c6cccc(F)c6)cncc5[nH]4)n[nH]c3cn2)c1)C1CC1 [Compound 19, N-(5-(3-(7-(3-Fluorophenyl)-3H-imidazo[4,5-c]pyridin-2-yl)-1H-pyrazolo[3,4-c]pyridin-5-yl)pyridin-3-yl)cyclopropanecarboxamide]"
20,1740 nM,"O=C(CC1CCCCC1)Nc1cncc(-c2cc3c(-c4nc5c(-c6cccc(F)c6)cncc5[nH]4)n[nH]c3cn2)c1 [Compound 899, 2-Cyclohexyl-N-(5-(3-(7-(3-fluorophenyl)-3H-imidazo[4,5-c]pyridin-2-yl)-1H-pyrazolo[3,4-c]pyridin-5-yl)pyridin-3-yl)acetamide]"
21,165 nM,"O=C(Nc1cncc(-c2cc3c(-c4nc5c(-c6ccc(F)cc6)cncc5[nH]4)n[nH]c3cn2)c1)C1CCC1 [Compound 46, N-(5-(3-(7-(4-Fluorophenyl)-3H-imidazo[4,5-c]pyridin-2-yl)-1H-pyrazolo[3,4-c]pyridin-5-yl)pyridin-3-yl)cyclobutanecarboxamide]"
22,61 nM,"CCC(=O)Nc1cncc(-c2cc3c(-c4nc5c(-c6cccc(F)c6)cncc5[nH]4)n[nH]c3cn2)c1 [Compound 1, N-(5-(3-(7-(3-Fluorophenyl)-3H-imidazo[4,5-c]pyridin-2-yl)-1H-pyrazolo[3,4-c]pyridin-5-yl)pyridin-3-yl)propionamide]"
23,735 nM,"Fc1cccc(-c2cncc3[nH]c(-c4n[nH]c5cnc(-c6cncc(OC7CCCCC7)c6)cc45)nc23)c1 [Compound 891, 5-(5-(Cyclohexyloxy)pyridin-3-yl)-3-(7-(3-fluorophenyl)-3H-imidazo[4,5-c]pyridin-2-yl)-1H-pyrazolo[3,4-c]pyridine]"
